# Experiments:
# [1] = test system: Beet Armyworm (Spodoptera exigua) ("BAW"), second instar larvae; assay: Bioassay on beet armyworm (BAW), 128-well diet tray assay; assay type: in vivo; details: for pest or weed control at 50 µg/cm2: Spodoptera exigua, read-out: BAW rating; for BAW rating: Table ABC, species BAW, C = not tested, D = no activity noticed
# Summary of the method: (§1)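 Each value represents average percent mortality from eight wells. Larvae were kept in clear-covered trays at 25° C. for five to seven days on a 14-hour light, 10-hour dark schedule before scoring.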
# [2] = test system: Cabbage Looper (Trichoplusia ni) ("CL"), second instar larvae; assay: Bioassay on cabbage looper (CL), 128-well diet tray assay; assay type: in vivo; details: for pest or weed control at 50 µg/cm2: Trichoplusia ni, read-out: CL rating; for CL rating: Table ABC, species CL, C = not tested, D = no activity noticed
# Summary of the method: as §1
SMILES,pest or weed control at 50 µg/cm2 [1] [%],pest or weed control at 50 µg/cm2 [2] [%],BAW rating [1],CL rating [2]
"Cc1ccc(COCC(F)(F)F)c(N2C(=O)CS/C2=N\C(=O)Nc2ccc(-n3cnc(-c4ccc(OC(F)(F)F)cc4)n3)cc2C)c1 [Compound J442, (Z)-1-(3-(5-Methyl-2-((2,2,2-trifluoroethoxy)methyl)phenyl)-4-oxothiazolidin-2-ylidene)-3-(2-methyl-4-(3-(4-(trifluoromethoxy)phenyl)-1H-1,2,4-triazol-1-yl)phenyl)urea]",50 to 100,50 to 100,,
"COC(c1ccc(C)cc1N1C(=O)CS/C1=N\C(=O)Nc1ccc(-n2cnc(-c3ccc(OC(F)(F)F)cc3)n2)cc1C)C(F)(F)F (centres unmarked) [Compound J443, (Z)-1-(3-(5-Methyl-2-(2,2,2-trifluoro-1-methoxyethyl)phenyl)-4-oxothiazolidin-2-ylidene)-3-(2-methyl-4-(3-(4-(trifluoromethoxy)phenyl)-1H-1,2,4-triazol-1-yl)phenyl)urea]",50 to 100,50 to 100,,
"COCc1ccc(N(C)C)cc1N1C(=O)CS/C1=N\C(=O)Nc1ccc(-n2cnc(-c3ccc(OC(F)(F)F)cc3)n2)cc1C [Compound J444, (Z)-1-(3-(5-(Dimethylamino)-2-(methoxymethyl)phenyl)-4-oxothiazolidin-2-ylidene)-3-(2-methyl-4-(3-(4-(trifluoromethoxy)phenyl)-1H-1,2,4-triazol-1-yl)phenyl)urea]",50 to 100,50 to 100,,
CCOCc1ccc(C)cc1N1C(=O)CS/C1=N\C(=O)Nc1ccc(-c2ncn(-c3ccc(S(F)(F)(F)(F)F)cc3)n2)cc1F [Compound J445],,,A (50-100),A (50-100)
Cc1ccc(COCC(F)F)c(N2C(=O)CS/C2=N\C(=O)Nc2ccc(-c3ncn(-c4ccc(S(F)(F)(F)(F)F)cc4)n3)cc2F)c1 [Compound J446],50 to 100,50 to 100,,
Cc1ccc(OCCC(F)(F)F)c(N2C(=O)CS/C2=N\C(=O)Nc2ccc(-c3ncn(-c4ccc(S(F)(F)(F)(F)F)cc4)n3)cc2F)c1 [Compound J447],50 to 100,50 to 100,,
Cc1ccc(N2C(=O)CS/C2=N\C(=O)Nc2ccc(-c3ncn(-c4ccc(OC(F)(F)F)cc4)n3)cc2C)c(COCC(F)(F)F)c1 [Compound J448],,,A (50-100),A (50-100)
Cc1ccc(COCC(F)(F)Cl)c(N2C(=O)CS/C2=N\C(=O)Nc2ccc(-c3ncn(-c4ccc(S(F)(F)(F)(F)F)cc4)n3)cc2F)c1 [Compound J449],,,A (50-100),A (50-100)
CC(C)c1ccc(N(C)C)cc1N1C(=O)CS/C1=N\C(=O)Nc1ccc(-c2ncn(-c3ccc(S(F)(F)(F)(F)F)cc3)n2)cc1F [Compound J450],,,A (50-100),A (50-100)
Cc1ccc(N2C(=O)CS/C2=N\C(=O)Nc2ccc(-c3ncn(-c4ccc(C(F)(F)F)cn4)n3)cc2F)c(COCC(F)(F)F)c1 [Compound J451],,,A (50-100),A (50-100)
Cc1ccc(COCC(Cl)(Cl)Cl)c(N2C(=O)CS/C2=N\C(=O)Nc2ccc(-c3ncn(-c4ccc(OC(F)(F)F)cc4)n3)cc2F)c1 [Compound J452],,,A (50-100),A (50-100)
Cc1ccc(COCC(Cl)(Cl)Cl)c(N2C(=O)CS/C2=N\C(=O)Nc2ccc(-c3ncn(-c4ccc(S(F)(F)(F)(F)F)cc4)n3)cc2F)c1 [Compound J453],,,A (50-100),A (50-100)
CCCc1ccc(C)cc1N1C(=O)CS/C1=N\C(=O)Nc1ccc(-c2ncn(-c3ccc(C(F)(F)F)cn3)n2)cc1F [Compound J454],,,A (50-100),A (50-100)
Cc1cc(COCC(F)(F)F)c(N2C(=O)CS/C2=N\C(=O)Nc2ccc(-c3ncn(-c4ccc(OC(F)(F)F)cc4)n3)cc2F)cc1C [Compound J455],,,A (50-100),A (50-100)
"Cc1ccc(Cc2ccccc2)c(N2C(=O)CS/C2=N\C(=O)Nc2ccc(-c3ncn(-c4ccc(OC(F)(F)F)cc4)n3)cc2C)c1 [Compound J456, (Z)-1-(3-(2-Benzyl-5-methylphenyl)-4-oxothiazolidin-2-ylidene)-3-(2-methyl-4-(1-(4-(trifluoromethoxy)phenyl)-1H-1,2,4-triazol-3-yl)phenyl)urea]",50 to 100,50 to 100,,
"Cc1ccc(Cc2ccccc2)c(N2C(=O)CS/C2=N\C(=O)Nc2ccc(-c3ncn(-c4ccc(OC(F)(F)F)cc4)n3)cc2F)c1 [Compound J457, (Z)-1-(3-(2-Benzyl-5-methylphenyl)-4-oxothiazolidin-2-ylidene)-3-(2-fluoro-4-(1-(4-(trifluoromethoxy)phenyl)-1H-1,2,4-triazol-3-yl)phenyl)urea]",50 to 100,50 to 100,,
"Cc1ccc(COCC(F)(F)F)c(N2C(=O)C(Cl)(Cl)S/C2=N\C(=O)Nc2ccc(-c3ncn(-c4ccc(OC(F)(F)F)cc4)n3)cc2F)c1 [Compound J458, (Z)-1-(5,5-dichloro-3-(5-methyl-2-((2,2,2-trifluoroethoxy)methyl)phenyl)-4-oxothiazolidin-2-ylidene)-3-(2-fluoro-4-(1-(4-(trifluoromethoxy)phenyl)-1H-1,2,4-triazol-3-yl)phenyl)urea]",50 to 100,50 to 100,,
Cc1ccc(COCC(Cl)(Cl)Cl)c(N2C(=O)CS/C2=N\C(=O)Nc2ccc(-c3ncn(-c4ccc(OC(F)(F)F)cc4)n3)cc2C)c1 [Compound J459],,,A (50-100),A (50-100)
Cc1cc(COCC(F)(F)F)c(N2C(=O)CS/C2=N\C(=O)Nc2ccc(-c3ncn(-c4ccc(OC(F)(F)F)cc4)n3)cc2C)cc1C [Compound J460],,,A (50-100),A (50-100)
"COC(C)c1ccc(C)cc1N1C(=O)CS/C1=N\C(=O)Nc1ccc(-c2cn(-c3ccc(C(F)(F)F)cn3)cn2)cc1F (centres unmarked) [Compound J461, (Z)-1-(2-Fluoro-4-(1-(5-(trifluoromethyl)pyridin-2-yl)-1H-imidazol-4-yl)phenyl)-3-(3-(2-(1-methoxyethyl)-5-methylphenyl)-4-oxothiazolidin-2-ylidene)urea]",50 to 100,50 to 100,,
"COC(C)c1ccc(C)cc1N1C(=O)CS/C1=N\C(=O)Nc1ccc(-c2cn(-c3ccc(OC(F)(F)F)cc3)cn2)cc1 (centres unmarked) [Compound J463, (Z)-1-(3-(2-(1-Methoxyethyl)-5-methylphenyl)-4-oxothiazolidin-2-ylidene)-3-(4-(1-(4-(trifluoromethoxy)phenyl)-1H-imidazol-4-yl)phenyl)urea]",50 to 100,50 to 100,,
"Cc1ccc(OCCCC(F)(F)F)c(N2C(=O)CS/C2=N\C(=O)Nc2ccc(-n3cnc(-c4ccc(OC(F)(F)F)cc4)n3)cc2C)c1 [Compound J465, (Z)-1-(3-(5-Methyl-2-(4,4,4-trifluorobutoxy)phenyl)-4-oxothiazolidin-2-ylidene)-3-(2-methyl-4-(3-(4-(trifluoromethoxy)phenyl)-1H-1,2,4-triazol-1-yl)phenyl)urea]",50 to 100,50 to 100,,
"Cc1ccc(C(C)C)c(N2C(=O)CS/C2=N\C(=O)Nc2ccc(-n3cnc(-c4ccc(OC(F)(F)F)cc4)n3)cc2C)c1 [Compound J466, (Z)-1-(3-(2-Isopropyl-5-methylphenyl)-4-oxothiazolidin-2-ylidene)-3-(2-methyl-4-(3-(4-(trifluoromethoxy)phenyl)-1H-1,2,4-triazol-1-yl)phenyl)urea]",50 to 100,50 to 100,,
"COC(C)c1ccc(C)cc1N1C(=O)CS/C1=N\C(=O)Nc1ccc(-n2cnc(-c3ccc(OC(F)(F)F)cc3)n2)cc1C (centres unmarked) [Compound J467, (Z)-1-(3-(2-(1-Methoxyethyl)-5-methylphenyl)-4-oxothiazolidin-2-ylidene)-3-(2-methyl-4-(3-(4-(trifluoromethoxy)phenyl)-1H-1,2,4-triazol-1-yl)phenyl)urea]",50 to 100,50 to 100,,
"Cc1cc(-n2cnc(-c3ccc(OC(F)(F)F)cc3)n2)ccc1NC(=O)/N=C1\SCC(=O)N1c1cc(N(C)C)ccc1C(F)(F)F [Compound J468, (Z)-1-(3-(5-(Dimethylamino)-2-(trifluoromethyl)phenyl)-4-oxothiazolidin-2-ylidene)-3-(2-methyl-4-(3-(4-(trifluoromethoxy)phenyl)-1H-1,2,4-triazol-1-yl)phenyl)urea]",50 to 100,50 to 100,,
"Cc1cc(-n2cnc(-c3ccc(OC(F)(F)F)cc3)n2)ccc1NC(=O)/N=C1\SCC(=O)N1c1cc(N(C)C)ccc1C(C)C [Compound J469, (Z)-1-(3-(5-(Dimethylamino)-2-isopropylphenyl)-4-oxothiazolidin-2-ylidene)-3-(2-methyl-4-(3-(4-(trifluoromethoxy)phenyl)-1H-1,2,4-triazol-1-yl)phenyl)urea]",50 to 100,50 to 100,,
"Cc1ccc(C(C)C)c(N2C(=O)CS/C2=N\C(=O)Nc2ccc(-c3cn(-c4ccc(OC(F)(F)F)cc4)cn3)cc2F)c1 [Compound J473, (Z)-1-(2-Fluoro-4-(1-(4-(trifluoromethoxy)phenyl)-1H-imidazol-4-yl)phenyl)-3-(3-(2-isopropyl-5-methylphenyl)-4-oxothiazolidin-2-ylidene)urea]",50 to 100,50 to 100,,
"CC(C)c1ccc(N(C)C)cc1N1C(=O)CS/C1=N\C(=O)Nc1ccc(-c2cn(-c3ccc(OC(F)(F)F)cc3)cn2)cc1F [Compound J474, (Z)-1-(3-(5-(Dimethylamino)-2-isopropylphenyl)-4-oxothiazolidin-2-ylidene)-3-(2-fluoro-4-(1-(4-(trifluoromethoxy)phenyl)-1H-imidazol-4-yl)phenyl)urea]",50 to 100,50 to 100,,

# Source: patent US20230077362A1 (CORTEVA AGRISCIENCE LLC, priority 2019, published 2023)
